The test system of experiment [1] is rat PC12 pheochromocytoma cells. It is filed as cell-based. To be noted: for occurrence of superoxide flashes: ρ− PC12 cells; for incidence of superoxide flashes: ethidium bromide 200 ng/ml for 60 days, PC12 cells. The source says:
(§1) Enzymatically isolated rat ventricular myocytes and hippocampal neurons in primary culture were infected with adenovirus carrying the mt-cpYFP gene or its mutants at an m.o.i. of 1:100 and cultured for 2 to 3 days (Zhou et al., Am. J. Physiol. Heart Circ. Physiol., 279; H429-H436, 2000). Similar conditions were used when expressing mt-cpYFP in other cell types. To obtain spatially and temporally resolved fluorescent images of mt-cpYFP, a Zeiss LSM 510 confocal microscope equipped with a 63×, 1.3NA oil immersion objective and a sampling rate of 0.7 s/frame was used. Dual wavelength excitation imaging of mt-cpYFP was achieved by alternating excitation at 405 and 488 nm and collecting emission at >505 nm. Tri-wavelength excitation imaging of mt-cpYFP and TMRM (20 nM) or rhod-2 was achieved by tandem excitation at 405, 488, and 543 nm, and the emission was collected at 515-550, 515-550 and >560 nm, respectively. To increase mitochondrion retention of rhod-2, the indicator loading protocol described by Hajnoczky C et al. was used with modification (Hajnoczky et al., Cell, 82: 415-424, 2000). Briefly, cells were loaded with 4 μM rhod-2 AM (after NaBH4 quenching) at 4° C. for 1 hr, and then changed to normal culture medium for 4 hrs. The standard extracellular perfusion solution contained (in mM): NaCl 137, KCl 4.9, CaCl21, MgSO4 1.2, NaH2PO4 1.2, glucose 15, and HEPES 20 (pH 7.4). Digital image processing was performed using IDL software (Research Systems) and customer-devised programs.
(§2) ρ° 143B TK human osteosarcoma cells and its wild type control were a generous gift from Dr. Nadja C. de Souza-Pinto (National Institute on Aging, NIH). Wild type and ρ° 143B cells were cultured under identical conditions, in DMEM medium supplemented with 10% FBS, 100 μg/ml pyruvate, 100 μg/ml bromodeoxyuridine and 50 μg/ml uridine17. Mitochondria of ρ° 143B cells completely lack mitochondrial respiration, due to the loss of critical ETC proteins including constituents of complex I (ND1-6, ND4L), complex III (cytochrome b) and complex IV (COX I-III) encoded by mitochondrial DNA. To partially deplete mitochondrial DNA and allow partial disruption of mitochondrial respiration, PC12 pheochromocytoma cells were cultured in DMEM medium with 10% FBS, 200 ng/ml ethidium bromide, 100 μg/ml pyruvate and 50 μg/ml uridine for up to 60 days. Depletion of mitochondrial DNA was evidenced by western blot analysis of cytochrome C oxidase subunit I.

The subject of experiment [2] is superoxide flashes in rat cardiac myocytes. The experiment in a line: Confocal imaging of superoxide flashes in cardiac myocytes expressing mt-cpYFP. It is filed as cell-based. The following applies: for occurrence of superoxide flashes: cardiac myocytes. Here is the method:
Similar conditions were used when expressing mt-cpYFP in other cell types. […] Briefly, cells were loaded with 4 μM rhod-2 AM (after NaBH4 quenching) at 4° C. for 1 hr, and then changed to normal culture medium for 4 hrs. […] Digital image processing was performed using IDL software (Research Systems) and customer-devised programs.

The subject of experiment [3] is ρ° 143B TK-human osteosarcoma cells. The experiment in a line: Superoxide flashes in mitochondrial DNA-deleted ρ° 143B cells. The following applies: atractyloside 20 μM. It is filed as cell-based.
Description: as §1, with “Digital image processing was performed using IDL software (Research Systems) and customer-devised programs.” left out

Experiment [4] relates to superoxide flashes in cardiac myocytes. The experiment in a line: Superoxide flashes in cardiac myocytes during hypoxia and reoxygenation. It is filed as cell-based, rat. The following applies: diazoxide 30 μM added 20 min prior to hypoxia.
Description: as §1, with “Digital image processing was performed using IDL software (Research Systems) and customer-devised programs.” left out

For experiment [5], the system named is cytochrome C oxidase subunit I (COX-1). Briefly: Western blot of cytochrome C oxidase subunit I in ethidium bromide-treated PC12 cells. It is filed as cell-based, rat. The following applies: ethidium bromide 200 ng/ml for 60 days. As to the method:
as §2
In general terms: In western blotting, separated proteins are transferred to a membrane and probed.

The next experiment relates to cellular ROS production. The following applies: previous finding, Aon et al. 2003; cited from earlier work.
Experiment [6] can be described thus: Spectral analysis of purified cpYFP: in vitro redox calibration and response to ROS and metabolites. It is filed as biochemical. As to the method: cpYFP cDNA (807 bp) was cloned into a prokaryotic expression vector (pRSET) and transferred into E. Coli cell line (BL21(DE3)LysS) for large-scale protein expression. In vitro redox calibration of cpYFP fluorescence was carried out using methods described previously (Hanson et al., J. Biol. Chem., 279: 13044-13053, 2004). Briefly, under an inert environment, purified cpYFP protein (1 μM) was incubated with either 10 mM reduced DTT or 1 mM aldrithiol for at least 3 hours, allowing for solution equilibration. Reduced DTT was removed from the solution allowing measurement of cpYFP response to various ROS and metabolites. The calibration solution contained (in mM): HEPES 75, KCl 125, and EDTA 1, pH=8.0. Emission and excitation spectra of reduced and oxidized cpYFP in the presence of designated reagents were obtained with a spectrofluorimeter (Model: CM1T101, HORIBA Jobin Yvon, Inc.) filled with nitrogen gas.
Using cpYFP purified from an E. coli expression system, excitation and emission fluorescence spectra were measured in response to reducing (10 mM reduced DTT) and oxidizing manipulations (1 mM aldrithiol). […] Extensive in vitro experiments were performed to determine the selectivity of cpYFP among physiologically relevant oxidants and metabolites. […] The cpYFP signal, however, was insensitive to hydrogen peroxide (H2O2) over a wide range of concentrations (0.1-10 mM) (FIG. 1c) and peroxynitrite (FIG. 2), and was decreased by hydroxyl radicals (.OH) (FIG. 1c) and nitric oxide (FIG. 2).

We go through 10 molecules from patent publication US20080299599A1, “FLUORESCENT PROTEINS FOR MONITORING INTRACELLULAR SUPEROXIDE PRODUCTION” (priority 2006, published 2008).

Like-named read-outs stand apart in the source and are kept apart here.

Regarding `C=C(C)[C@H]1Cc2c(ccc3c2O[C@@H]2COc4cc(OC)c(OC)cc4[C@@H]2C3=O)O1` [Rotenone], the “occurrence of superoxide flashes” value in experiment [1] (rotenone 5 μM) and in experiment [2] (rotenone 5 μM) was “virtually abolished” each time.

As for `C=C1[C@@H]2CC[C@H]3[C@]4(C)C[C@H](O[C@@H]5O[C@H](CO)[C@@H](OS(=O)(=O)O)[C@H](OS(=O)(=O)O)[C@H]5OC(=O)CC(C)C)C[C@@H](C(=O)O)[C@H]4CC[C@]3(C2)[C@H]1O` [atractyloside], in experiment [2] (atractyloside 20 μM), the “effect on superoxide flash frequency” value is reported as “significantly augment superoxide flash frequency”. Also, in experiment [3], the “rescue of superoxide flashes in ρ° cells” value was “cannot be rescued”.

`CO[C@H](C/C=C\C=C\CC/C=C/C[C@H](C)/C=C/C(=C\C(=O)O)CC(=O)O)/C(C)=C\C=C(/C)C(=O)O` [bongkrekic acid]: in experiment [2] (bongkrekic acid 100 μM), the “effect on superoxide flash amplitude” value is on record as “reducing their amplitude”, the “effect on superoxide flash kinetics” value is listed as “abbreviating their kinetics” and the “incidence of superoxide flashes” value is recorded as 33 % of control.

Take `CC1=NS(=O)(=O)c2cc(Cl)ccc2N1` [diazoxide]: in experiment [4], the “effect on rebound flurry of superoxide flash activity after reoxygenation” value was “effectively protected the cells from the rebound flurry of superoxide flash activity”.

On to `CC[n+]1c(-c2ccccc2)c2cc(N)ccc2c2ccc(N)cc21` [ethidium bromide], for which the “incidence of superoxide flashes” value is given as 60 % of control in experiment [1] and 23±3 events per 1000 μm2 cell area per 100 s in experiment [1] (wild type 63±6). The “cytochrome C oxidase subunit I (COX-1) expression” value in experiment [5] is recorded as 70 % of control.

With `O=S(=O)(O)c1cc(O)c(O)c(S(=O)(=O)O)c1` [tiron], the “effect on frequency and amplitude of flashes” value in experiment [2] (tiron 1 mM) is “similarly diminished the frequency and amplitude of flashes”.

For the molecule “C160A/C182A: SEQ ID NO. 1 with both cysteines C160 and C182 substituted to alanine”, the “response of the probe to superoxide after cysteine substitution” value in experiment [2] (residue numbering of SEQ ID NO. 1) is given as “completely abolishes the response of the probe to superoxide”.

Take MnTMPyP: in experiment [2] (MnTMPyP 50 μM), the “inhibition of flash activity” value was 83%. For the same molecule, in experiment [2] (MnTMPyP 50 μM, n=12, p<0.01 vs control), the “flash amplitude (ΔF/F0)” value is 0.18±0.02.

Consider antimycin A, for which the “occurrence of superoxide flashes” value in experiment [1] (antimycin A 5 μg/ml) and in experiment [2] (antimycin A 5 μg/ml) was “virtually abolished” throughout. In addition, the “effect on cellular ROS production measured with DCF” value with cellular ROS production is “increases cellular ROS production”.

“cpYFP: circularly permuted yellow fluorescent protein; superoxide probe of SEQ ID NO. 1, pericam without calmodulin and M13 domains”: the “brightness of oxidized cpYFP versus fully reduced species” value in experiment [6] (1 mM aldrithiol vs 10 mM reduced DTT, excited at 488 nm) was “about five times brighter”. For the same molecule, the “cpYFP signal response to other metabolites” value in experiment [6] (ATP, ADP, NAD(P)+, NAD(P)H and Ca2+ at physiological concentrations) is recorded as “negligible or only marginal effects”. Moreover, in experiment [6] (Fenton reaction, 1 mM H2O2 plus 0.1 mM FeSO4, anaerobic), the “cpYFP signal response to hydroxyl radicals” value is given as “decreased”. Besides, the “cpYFP signal response to hydrogen peroxide” value in experiment [6] (H2O2 0.1-10 mM) is “insensitive”. Besides, the “cpYFP signal response to peroxynitrite” value in experiment [6] (SIN-1 1 mM in aerobic solution) is on record as “insensitive”. For the same molecule, the “cpYFP signal response to nitric oxide” value in experiment [6] (SIN-1 1 mM in anaerobic solution) is recorded as “decreased”. Further, in experiment [6] (basic environments, e.g. mitochondrial matrix pH 8.0), the “cpYFP brightness dependence on pH” value is reported as “brighter in basic environments”. Also, in experiment [6] (xanthine/xanthine oxidase (2 mM/20 mU), aerobic, compared to fully reduced state), the “increase of cpYFP fluorescence in response to O2.−” value is 420%.
